Experimental data taken from article PMC12260505, “First-in-Human Phase I/IIa Study of the First-in-Class CDK2/4/6 Inhibitor PF-06873600 Alone or with Endocrine Therapy in Patients with Breast Cancer” (Clinical Cancer Research, 2025).

How the values were obtained:
CDK4 = biological target: CDK4; parameters: method as in PMID 34110834; conditions: cited from earlier work
CDK9 = biological target: CDK9; parameters: method as in PMID 34110834; conditions: cited from earlier work
CDK1 = biological target: CDK1; parameters: method as in PMID 34110834; conditions: cited from earlier work
[1] = test system: HR+/HER2− metastatic breast cancer; test: Antitumor activity by RECIST version 1.1; type: in vivo, human; conditions: for Objective response (CR + PR; pts with HR+/HER2− breast cancer with measurable disease at baseline and prior CDK4/6i): 40 such pts
Procedure: Antitumor activity was assessed through radiological tumor assessments conducted at baseline, during treatment, whenever disease progression was suspected (e.g., symptomatic deterioration), and at the time of withdrawal from treatment (if not done in the previous 8 weeks). Responses were assessed using RECIST version 1.1.
DLT was the primary endpoint of the study, summarized by dose level using the per-protocol analysis set for patients in the dose escalation portion of the study. Efficacy analysis was summarized by dose cohorts for part 2 of the study. For part 1, no formal efficacy analysis was presented. For part 2, tumor response was presented in the form of patient data listings that included, but were not limited to, tumor type, starting dose, tumor response at each visit, and best overall response. In addition, progression date, death date, date of first response, last tumor assessment date, and date of last contact were listed. ORR, PFS, overall survival, TTP, and DoR were summarized and presented as data permitted. For response-based metrics (best overall response, ORR, and DoR), analyses were presented on the basis of confirmed responses. Analyses of PFS and TTP were defined as the time from the date of the first dose. Summaries of the number and percentage of patients with PFS and TTP and data listings by tumor type and dose were generated based on data availability. The 95% confidence intervals (CI) for medians and quartiles were generated based on the Brookmeyer–Crowley method, whereas CIs for the estimated probability of an event at a particular time point were generated using the Greenwood formula. DoR was summarized with the number of responders, the number and percentage of events/censorship, mean, standard deviation, and minimum, maximum, and median duration in units of months. ORR was summarized by the number of patients meeting respective criteria as a percentage. The 95% CIs were generated for PFS, TTP, and ORR based on available data.

phosphorylated Rb (pRb) = test: IHC of pRb (H-score) in paired tumor biopsies; type: in vivo, human
Procedure: The pharmacodynamic effects of PF-06873600 were assessed by IHC staining of pRb and Ki67 in tumor biopsy samples collected at screening and day 1 of cycle 2 (4 hours after dose). Immunostaining was performed on […] formalin-fixed, paraffin-embedded tissue sections using rabbit monoclonal anti-Rb (Ser807/811) antibody (clone D20B12, Cell Signaling Technology) and rabbit monoclonal anti-Ki67 antibody (Ventana Medical Systems), respectively. pRb and Ki67 expressions were assessed semiquantitatively by a board-certified pathologist. Scoring was performed using the percentage of cells positive for Ki67 or a histo-score (H-score) methodology for pRb based on staining intensity and the percentage of positive cells. Intensity was scored as 0, none; 1, weak; 2, moderate; or 3, strong, and H-scores were calculated as follows: H-score = [fraction of cells with intensity grade 1 (%)] + [fraction of cells with intensity grade 2 (%) × 2] + [fraction of cells with intensity grade 3 (%) × 3].

ctDNA = ctDNA molecular response (Guardant360, meanVAF change); type: in vivo, human; conditions: plus fulvestrant; for Median ctDNA molecular response: combined parts 2A and 2C; for Median change in ctDNA meanVAF: cycle 1 day 15 from cycle 1 day 1
Procedure: Plasma samples were collected at cycle 1 day 1, cycle 1 day 15, and the end of treatment (EOT). Genomic alterations in ctDNA were detected using the next-generation sequencing–based 74-gene Guardant360 platform (Guardant Health). ctDNA molecular response between the two samples was determined as described by Mack and colleagues ([9]). Briefly, after subtracting germline variants and potential clonal hematopoiesis of indeterminate potential, the mean variant allele frequency (meanVAF) of somatic variants (including single-nucleotide variants, insertions and deletions, and fusions) with a mutant molecular count above a proprietary threshold was calculated for each sample by averaging the VAFs of all variants detected among the two samples. The relative change of meanVAF of the posttreatment sample from the baseline sample was then calculated as the ctDNA molecular response. Samples lacking somatic variants with sufficient mutant molecular counts or the absence of any somatic alterations at both time points were considered ctDNA low and not evaluable for molecular response.

[2] = Part 2A 25 mg twice daily IR + Fulvestrant, n = 45, response-evaluable set
[3] = Part 2C 25 mg twice daily IR + Fulvestrant, n = 22, response-evaluable set
[4] = Part 2 total (2A + 2C, + Fulvestrant), N = 67

Question: For `C[C@@]1(O)CCC[C@H]1n1c(=O)c(C(F)F)cc2cnc(NC3CCN(S(C)(=O)=O)CC3)nc21` [PF-06873600], which Ki (CDK4) is on record?
Answer: Its Ki is 1.25 nM.

Question: What about the Ki (CDK9) of the same molecule?
Answer: Its Ki is 19.6 nM.

Question: And the Ki (CDK1)?
Answer: The Ki was 4.5 nM.

Question: What about the “Objective response (CR + PR; pts with HR+/HER2− breast cancer with measurable disease at baseline and prior CDK4/6i)” value ([1]; Part 2A 25 mg twice daily IR + Fulvestrant) of the same molecule?
Answer: The value was 3 (7.5) n (%).

Question: And the “Objective response (pts with HR+/HER2− breast cancer with measurable disease at baseline)” value ([1]; Part 2A 25 mg twice daily IR + Fulvestrant, 44 such pts)?
Answer: The value was 3 (6.8) n (%).

Question: What about the “Clinical benefit response (CR, PR, or ≥24 weeks stable disease)” value (shortened to “Clinical benefit response”) [1, 2] of the same molecule?
Answer: The value was 19 (42.2) n (%).

Question: What about the “Confirmed best overall response, CR” value [1, 2] of the same molecule?
Answer: The value was 0 n (%).

Question: And the “Confirmed best overall response, NE (not evaluable)” value [1, 2]?
Answer: The value was 1 (2.2) n (%).

Question: And the “Confirmed best overall response, Non-CR/non-PD” value [1, 2]?
Answer: The value was 0 n (%).

Question: What about the “Confirmed best overall response, PR” value [1, 2] of the same molecule?
Answer: Its value is 3 (6.7) n (%).

Question: And the “Confirmed best overall response, Progressive disease (PD)” value (shortened to “Confirmed best overall response … (PD)”) [1, 2]?
Answer: Its value is 11 (24.4) n (%).

Question: What about the “Confirmed best overall response, Stable disease” value [1, 2] of the same molecule?
Answer: The value was 30 (66.7) n (%).

Question: What about the “Disease control (CR + PR + stable disease + non-CR/non-PD)” value [1, 2] of the same molecule?
Answer: The value was 33 (73.3) n (%).

Question: What about the “Objective response (CR + PR)” value [1, 2] of the same molecule?
Answer: Its value is 3 (6.7) n (%).

Question: What about the “Objective response (pts with HR+/HER2− breast cancer with measurable disease at baseline)” value ([1]; Part 2C 25 mg twice daily IR + Fulvestrant, 20 such pts) of the same molecule?
Answer: Its value is 5 (25.0) n (%).

Question: And the “Clinical benefit response” value [1, 3]?
Answer: Its value is 13 (59.1) n (%).

Question: What about the “Confirmed best overall response, CR” value [1, 3] of the same molecule?
Answer: Its value is 0 n (%).

Question: What about the “Confirmed best overall response, NE (not evaluable)” value [1, 3] of the same molecule?
Answer: Its value is 1 (4.5) n (%).

Question: And the “Confirmed best overall response, Non-CR/non-PD” value [1, 3]?
Answer: Its value is 1 (4.5) n (%).

Question: And the “Confirmed best overall response, PR” value [1, 3]?
Answer: Its value is 5 (22.7) n (%).

Question: What about the “Confirmed best overall response … (PD)” value [1, 3] of the same molecule?
Answer: Its value is 2 (9.1) n (%).

Question: What about the “Confirmed best overall response, Stable disease” value [1, 3] of the same molecule?
Answer: Its value is 13 (59.1) n (%).

Question: What about the “Disease control (CR + PR + stable disease + non-CR/non-PD)” value [1, 3] of the same molecule?
Answer: The value was 19 (86.4) n (%).

Question: And the “Objective response (CR + PR)” value [1, 3]?
Answer: Its value is 5 (22.7) n (%).

Question: What about the “Clinical benefit response” value [1, 4] of the same molecule?
Answer: Its value is 32 (47.8) n (%).

Question: And the “Confirmed best overall response, CR” value [1, 4]?
Answer: The value was 0 n (%).

Question: And the “Confirmed best overall response, NE (not evaluable)” value [1, 4]?
Answer: The value was 2 (3.0) n (%).

Question: What about the “Confirmed best overall response, Non-CR/non-PD” value [1, 4] of the same molecule?
Answer: Its value is 1 (1.5) n (%).

Question: What about the “Confirmed best overall response, PR” value [1, 4] of the same molecule?
Answer: Its value is 8 (11.9) n (%).

Question: And the “Confirmed best overall response … (PD)” value [1, 4]?
Answer: Its value is 13 (19.4) n (%).

Question: What about the “Confirmed best overall response, Stable disease” value [1, 4] of the same molecule?
Answer: Its value is 43 (64.2) n (%).

Question: What about the “Disease control (CR + PR + stable disease + non-CR/non-PD)” value [1, 4] of the same molecule?
Answer: The value was 52 (77.6) n (%).

Question: And the “Objective response (CR + PR)” value [1, 4]?
Answer: The value was 8 (11.9) n (%).

Question: What about the “Objective response (CR + PR; pts with HR+/HER2− breast cancer with measurable disease at baseline and prior CDK4/6i)” value ([1]; Part 2 total (+ Fulvestrant)) of the same molecule?
Answer: Its value is 3 (7.5) n (%).

Question: What about the “Objective response (pts with HR+/HER2− breast cancer with measurable disease at baseline)” value ([1]; Part 2 total (+ Fulvestrant), 64 such pts) of the same molecule?
Answer: The value was 8 (12.5) n (%).

Question: What about the “Partial responses (PR), patients” value ([1]; part 1 dose escalation, 78 patients (parts 1A, 1B, 1C)) of the same molecule?
Answer: The value was 3.8%.

Question: And the “Median change in pRb H-score from baseline” value (phosphorylated Rb (pRb); IR 25 mg twice daily monotherapy, cycle 2 day 1, HR+/HER2− mBC tumor biopsies)?
Answer: Its value is “–16.5%”.

Question: And the “Median percentage change in pRb H-score from baseline” value (phosphorylated Rb (pRb); IR 25 mg twice daily/fulvestrant combination, cycle 2 day 1)?
Answer: Its value is “–31.9%”.

Question: And the “Median ctDNA molecular response” value (ctDNA; EOT)?
Answer: Its value is 6%.

Question: And the “Median ctDNA molecular response” value (ctDNA; cycle 1 day 15)?
Answer: Its value is −60%.

Question: What about the “Median change in ctDNA meanVAF” value (ctDNA; part 2A (28 evaluable)) of the same molecule?
Answer: The value was −61%.

Question: And the “Median change in ctDNA meanVAF” value (ctDNA; part 2C (14 evaluable))?
Answer: Its value is −54%.
